Measurements taken from PubChem BioAssay AID248 (DTP/NCI, 2004).
Inconclusive results and toxic doses are left out. No stated cut-off is given here; in the data, active means T/C of 150% or more; inactive means T/C below 125%.

System: L1210 leukemia ip in BDF1 mice, survival T/C
Experiment: NCI In Vivo Anticancer Drug Screen. Data for tumor model L1210 Leukemia (intraperitoneal) in B6D2F1 (BDF1) mice
Conditions: endpoint: mean survival time, higher = longer survival
Method in brief: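 Each compound was tested against a transplantable tumor grown in mice. The endpoint was survival, with treated animals benchmarked against vehicle controls as a simple ratio.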

[1] = dose: 100.0 mg/kg/injection, schedule: Q04DX002 (ip), vehicle: Klucel (hydroxypropylcellulose) (HPC)
[2] = dose: 200.0 mg/kg/injection, schedule: Q04DX002 (ip), vehicle: Klucel (hydroxypropylcellulose) (HPC)
[3] = dose: 400.0 mg/kg/injection, schedule: Q04DX002 (ip), vehicle: Klucel (hydroxypropylcellulose) (HPC)
[4] = dose: 100.0 mg/kg/injection, schedule: Q04DX003 (ip), vehicle: Klucel (hydroxypropylcellulose) (HPC)
[5] = dose: 200.0 mg/kg/injection, schedule: Q04DX003 (ip), vehicle: Klucel (hydroxypropylcellulose) (HPC)
[6] = dose: 400.0 mg/kg/injection, schedule: Q04DX003 (ip), vehicle: Klucel (hydroxypropylcellulose) (HPC)
[7] = dose: 100.0 mg/kg/injection, schedule: Q01DX009 (ip), vehicle: Klucel (hydroxypropylcellulose) (HPC)
[8] = dose: 200.0 mg/kg/injection, schedule: Q01DX009 (ip), vehicle: Klucel (hydroxypropylcellulose) (HPC)
[9] = dose: 400.0 mg/kg/injection, schedule: Q01DX009 (ip), vehicle: Klucel (hydroxypropylcellulose) (HPC)
[10] = dose: 100.0 mg/kg/injection, schedule: Q01DX001 (ip), vehicle: saline
[11] = dose: 100.0 mg/kg/injection, schedule: Q01DX009 (ip), vehicle: saline
[12] = dose: 200.0 mg/kg/injection, schedule: Q01DX001 (ip), vehicle: saline
[13] = dose: 200.0 mg/kg/injection, schedule: Q01DX009 (ip), vehicle: saline
[14] = dose: 400.0 mg/kg/injection, schedule: Q01DX001 (ip), vehicle: saline
[15] = dose: 400.0 mg/kg/injection, schedule: Q01DX009 (ip), vehicle: saline
[16] = dose: 100.0 mg/kg/injection, schedule: Q04DX003 (ip), vehicle: saline with Tween-80
[17] = dose: 200.0 mg/kg/injection, schedule: Q04DX003 (ip), vehicle: saline with Tween-80
[18] = dose: 400.0 mg/kg/injection, schedule: Q04DX003 (ip), vehicle: saline with Tween-80
[19] = dose: 12.5 mg/kg/injection, schedule: Q04DX003 (ip), vehicle: saline
[20] = dose: 25.0 mg/kg/injection, schedule: Q04DX003 (ip), vehicle: saline
[21] = dose: 50.0 mg/kg/injection, schedule: Q01DX009 (ip), vehicle: saline
[22] = dose: 50.0 mg/kg/injection, schedule: Q04DX003 (ip), vehicle: saline
[23] = dose: 100.0 mg/kg/injection, schedule: Q04DX003 (ip), vehicle: saline
[24] = dose: 200.0 mg/kg/injection, schedule: Q04DX003 (ip), vehicle: saline
[25] = dose: 400.0 mg/kg/injection, schedule: Q04DX003 (ip), vehicle: saline
[26] = dose: 50.0 mg/kg/injection, schedule: Q01DX001 (ip), vehicle: saline
[27] = dose: 100.0 mg/kg/injection, schedule: Q01DX009 (ip), vehicle: saline with Tween-80
[28] = dose: 200.0 mg/kg/injection, schedule: Q01DX009 (ip), vehicle: saline with Tween-80
[29] = dose: 400.0 mg/kg/injection, schedule: Q01DX009 (ip), vehicle: saline with Tween-80

Measured: T/C

Cc1ccc(S/C=C/Sc2ccc(C)cc2)cc1
inactive: [1] 99 % of control | [2] 99 % of control | [3] 99 % of control

CCOc1ncc([N+](=O)[O-])cc1[N+](=O)[O-]
inactive: [4] 88 % of control | [5] 92 % of control | [6] 90 % of control

CCCCCCCN(CCCCCCC)C(C)C(=O)c1ccc2cc(Br)c3ccccc3c2c1 (stereo not drawn)
inactive: dose: 100.0 mg/kg/injection, schedule: Q01DX001 (ip), vehicle: alcohol 106 % of control | dose: 200.0 mg/kg/injection, schedule: Q01DX001 (ip), vehicle: alcohol 97 % of control | dose: 400.0 mg/kg/injection, schedule: Q01DX001 (ip), vehicle: alcohol 100 % of control

CCOC(=O)C(CCc1cc2ccccc2[nH]1)(C(=O)OCC)N1C(=O)c2ccccc2C1=O
inactive: [7] 94 % of control | [8] 89 % of control | [9] 89 % of control

O=S(O)O
inactive: [10] 95 % of control | [11] 103 % of control | [12] 97 % of control | [13] 97 % of control | [14] 103 % of control | [15] 100 % of control

COc1cccc(NC(=O)Oc2ccc(Cl)cc2Cl)c1
inactive: [1] 88 % of control | [2] 88 % of control

CC(C)(C)N(CSc1ccc(Cl)cc1)CSc1ccc(Cl)cc1
inactive: [10] 104 % of control | [12] 104 % of control

O=C(Nc1ccccc1)OCCc1c2ccccc2[n+]([O-])c2ccccc12
inactive: [16] 91 % of control | [17] 91 % of control | [18] 102 % of control

CCCCCCCCCC1(C)OCC(COC(N)=O)O1 (stereo not drawn)
inactive: dose: 25.0 mg/kg/injection, schedule: Q01DX009 (ip), vehicle: Klucel (hydroxypropylcellulose) (HPC) 104 % of control | dose: 25.0 mg/kg/injection, schedule: Q04DX003 (ip), vehicle: Klucel (hydroxypropylcellulose) (HPC) 98 % of control | dose: 50.0 mg/kg/injection, schedule: Q01DX009 (ip), vehicle: Klucel (hydroxypropylcellulose) (HPC) 93 % of control | dose: 50.0 mg/kg/injection, schedule: Q04DX003 (ip), vehicle: Klucel (hydroxypropylcellulose) (HPC) 96 % of control | [7] 93 % of control | [4] 96 % of control | [8] 98 % of control | [5] 98 % of control | [9] 102 % of control | [6] 98 % of control

CCN(CC)CCCOC(=O)C(CCC(C)C)c1ccccc1C (stereo not drawn)
inactive: dose: 12.5 mg/kg/injection, schedule: Q01DX009 (ip), vehicle: saline 93 % of control | [19] 102 % of control | dose: 25.0 mg/kg/injection, schedule: Q01DX009 (ip), vehicle: saline 102 % of control | [20] 100 % of control | [21] 93 % of control | [22] 94 % of control

O=c1cc(-c2ccccc2)nc(Nc2nc3ccc([N+](=O)[O-])cc3[nH]2)[nH]1
inactive: [7] 95 % of control | [4] 100 % of control | [8] 95 % of control | [5] 103 % of control | [9] 87 % of control | [6] 106 % of control

CCOC(=O)CCOCOCCC(=O)OCC
inactive: [23] 106 % of control | [24] 110 % of control | [25] 95 % of control

COc1cccc(CNC(C)(CO)CO)c1OC
inactive: [26] 98 % of control | [10] 104 % of control | [12] 102 % of control

CCOC(=O)/C(C)=C\C1C(C)=CC(=O)CC1(C)C (stereo not drawn)
inactive: [4] 102 % of control | [5] 95 % of control | [6] 100 % of control

CCOC(=O)C1=C(C)NC(C)=C(C(=O)OCC)C1
inactive: [21] 101 % of control | [11] 96 % of control | [23] 104 % of control | [13] 96 % of control | [24] 108 % of control | [15] 101 % of control | [25] 95 % of control

C/C(=C/C(=O)O)C(=O)Nc1cccc2c(NC(=O)/C(C)=C/C(=O)O)cccc12
inactive: dose: 100.0 mg/kg/injection, schedule: Q01DX001 (ip), vehicle: carboxymethylcellulose (CMC) 95 % of control | dose: 200.0 mg/kg/injection, schedule: Q01DX001 (ip), vehicle: carboxymethylcellulose (CMC) 96 % of control | dose: 400.0 mg/kg/injection, schedule: Q01DX001 (ip), vehicle: carboxymethylcellulose (CMC) 96 % of control

CCOC(=O)c1ccc(NC(=O)C(Br)C(Br)C(=O)O)cc1 (stereo not drawn)
inactive: [27] 94 % of control | [16] 101 % of control | [28] 94 % of control | [17] 100 % of control | [29] 97 % of control | [18] 101 % of control

COc1cc2c(O)cc(C(=O)OC(C)(C)C)c(-c3cc(OC)c(OC)c(OC)c3)c2cc1OC
inactive: [10] 97 % of control | [12] 95 % of control | [14] 89 % of control

Nc1nc(-c2cccc(NC(=O)c3ccc(S(=O)(=O)F)cc3)c2)nc2[nH]ncc12
inactive: dose: 25.0 mg/kg/injection, schedule: Q01DX001 (ip), vehicle: Klucel (hydroxypropylcellulose) (HPC) 86 % of control | dose: 50.0 mg/kg/injection, schedule: Q01DX001 (ip), vehicle: Klucel (hydroxypropylcellulose) (HPC) 94 % of control | dose: 100.0 mg/kg/injection, schedule: Q01DX001 (ip), vehicle: Klucel (hydroxypropylcellulose) (HPC) 86 % of control

Cc1ccc(S(=O)(=O)O/N=C(/C#N)c2ccccc2)cc1
inactive: [1] 111 % of control | [2] 97 % of control | [3] 101 % of control

COC(OC)c1[nH]c(=S)[nH]c(=O)c1Cc1cccc(Cl)c1
inactive: [11] 100 % of control | [15] 113 % of control

CCCCC(CCCC)c1cc[n+](CC(=O)c2ccccc2)cc1
inactive: dose: 12.5 mg/kg/injection, schedule: Q01DX001 (ip), vehicle: saline 106 % of control | [26] 97 % of control

CCCSC1=C(N2CC2)C(=O)C(SCCC)=C(N2CC2)C1=O
inactive: dose: 6.25 mg/kg/injection, schedule: Q04DX003 (ip), vehicle: saline 98 % of control | [19] 104 % of control | [20] 97 % of control | [22] 103 % of control | [23] 108 % of control | [24] 116 % of control

O=[As]O
inactive: dose: 0.5 mg/kg/injection, schedule: Q01DX015 (ip), vehicle: carboxymethylcellulose (CMC) 97 % of control | dose: 1.0 mg/kg/injection, schedule: Q01DX015 (ip), vehicle: carboxymethylcellulose (CMC) 93 % of control | dose: 1.53 mg/kg/injection, schedule: Q01DX Z (ip), vehicle: carboxymethylcellulose (CMC) 110 % of control | dose: 2.0 mg/kg/injection, schedule: Q01DX015 (ip), vehicle: carboxymethylcellulose (CMC) 97 % of control | dose: 3.15 mg/kg/injection, schedule: Q01DX Z (ip), vehicle: carboxymethylcellulose (CMC) 98 % of control | dose: 4.0 mg/kg/injection, schedule: Q01DX015 (ip), vehicle: carboxymethylcellulose (CMC) 97 % of control | dose: 5.0 mg/kg/injection, schedule: Q01DX015 (ip), vehicle: carboxymethylcellulose (CMC) 88 % of control | dose: 6.3 mg/kg/injection, schedule: Q01DX Z (ip), vehicle: carboxymethylcellulose (CMC) 104 % of control | dose: 10.0 mg/kg/injection, schedule: Q01DX015 (ip), vehicle: carboxymethylcellulose (CMC) 87 % of control | dose: 12.6 mg/kg/injection, schedule: Q01DX Z (ip), vehicle: carboxymethylcellulose (CMC) 104 % of control

NC(=S)N1N=C(c2cccc([N+](=O)[O-])c2)CCC1=O
inactive: [27] 92 % of control | [28] 92 % of control | [29] 101 % of control

Cc1cccc2ccccc12
inactive: [1] 107 % of control | [2] 107 % of control | [3] 107 % of control

CCOC(=O)/C(Cc1ccc2ccccc2n1)=N/O
inactive: [21] 93 % of control | [11] 98 % of control | [23] 98 % of control | [13] 87 % of control | [24] 96 % of control | [25] 93 % of control
